Results from patent US9376418B2, “Substituted pyridine spleen tyrosine kinase (SYK) inhibitors” (Merck Sharp & Dohme Corp., priority 2012, dated 2016).

Molecular target: T1, recombinant human GST-SYK (Homo sapiens, UniProt P43405)
T1 construct: purchased Carna Biosciences 08-176
Assay: Homogeneous Time-Resolved Fluorescence (HTRF) assay for the recombinant human Syk enzyme
Format: biochemical
Conditions: HTRF assay, recombinant human GST-SYK; IC50 given as class symbols; read-out: rhSYK Activity
Summary of the method: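 GST-hSYK ([…]) was preincubated with inhibitor (0.1% DMSO final) for 10 minutes at room temperature in 15 mM Tris-HCl pH 7.5, 0.01% tween 20, 2 mM DTT. Biotinylated peptide (250 nM), 5 mM magnesium and 25 μM ATP started a 45-minute room-temperature reaction, read by time-resolved fluorescence.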

| IC50 [nM] | SMILES |
| --- | --- |
| < 100 | Cc1cc(Nc2nccc(C(F)(F)F)n2)cc(-c2ccc(NC3(C(=O)O)CCNCC3)nc2)c1 [Example 7.72, 4-{[5-(3-methyl-5-{[4-(trifluoromethyl)pyrimidin-2-yl]amino}phenyl)pyridin-2-yl]amino}piperidine-4-carboxylic acid] |
| < 100 | Cc1cc(Nc2nccc(C(F)(F)F)n2)cc(-c2ccc(N[C@H](Cc3c[nH]cn3)C(=O)O)nc2)c1 [Example 7.73, N-[5-(3-methyl-5-{[4-(trifluoromethyl)pyrimidin-2-yl]amino}phenyl)pyridin-2-yl]-D-histidine] |
| < 100 | Cc1cc(Nc2nccc(C(F)(F)F)n2)cc(-c2ccc(N[C@@H](CCS(C)(=O)=O)C(=O)O)nc2)c1 [Example 7.74, (2S)-4-(methylsulfonyl)-2-{[5-(3-methyl-5-{[4-(trifluoromethyl)pyrimidin-2-yl]amino}phenyl)pyridin-2-yl]amino}butanoic acid] |
| < 100 | Cc1cc(Nc2nccc(C(F)(F)F)n2)cc(-c2ccc(N(CCC#N)CC(=O)O)nc2)c1 [Example 7.75, N-(2-cyanoethyl)-N-[5-(3-methyl-5-{[4-(trifluoromethyl)pyrimidin-2-yl]amino}phenyl)pyridin-2-yl]glycine] |
| < 100 | COCC(Nc1ccc(-c2cc(C)cc(Nc3nccc(C(F)(F)F)n3)c2)cn1)C(=O)O (stereo not shown) [Example 7.76, O-methyl-N-[5-(3-methyl-5-{[4-(trifluoromethyl)pyrimidin-2-yl]amino}phenyl)pyridin-2-yl]serine] |
| < 100 | Cc1cc(Nc2nccc(C(F)(F)F)n2)cc(-c2ccc(NC3(C(=O)O)CCC3)nc2)c1 [Example 7.78, 1-{[5-(3-methyl-5-{[4-(trifluoromethyl)pyrimidin-2-yl]amino}phenyl)pyridin-2-yl]amino}cyclobutanecarboxylic acid] |
| < 100 | Cc1cc(Nc2nccc(C(F)(F)F)n2)cc(-c2ccc(N[C@H](Cc3csc4ccccc34)C(=O)O)nc2)c1 [Example 7.79, 3-(1-benzothiophen-3-yl)-N-[5-(3-methyl-5-{[4-(trifluoromethyl)pyrimidin-2-yl]amino}phenyl)pyridin-2-yl]-D-alanine] |
| < 100 | Cc1cc(Nc2nccc(C(F)(F)F)n2)cc(-c2ccc(NC3(C(=O)O)CCCC3)nc2)c1 [Example 7.80, 1-{[5-(3-methyl-5-{[4-(trifluoromethyl)pyrimidin-2-yl]amino}phenyl)pyridin-2-yl]amino}cyclopentanecarboxylic acid] |
| 100 to 1000 | Cc1cc(Nc2nccc(C(F)(F)F)n2)cc(-c2ccc(NC3(C(=O)O)CC3)nc2)c1 [Example 7.81, 1-{[5-(3-methyl-5-{[4-(trifluoromethyl)pyrimidin-2-yl]amino}phenyl)pyridin-2-yl]amino}cyclopropanecarboxylic acid] |
| < 100 | Cc1cc(Nc2nccc(C(F)(F)F)n2)cc(-c2ccc(N3CCC3C(=O)O)nc2)c1 (stereo not shown) [Example 7.82, 1-[5-(3-methyl-5-{[4-(trifluoromethyl)pyrimidin-2-yl]amino}phenyl)pyridin-2-yl]azetidine-2-carboxylic acid] |
| < 100 | Cc1cc(Nc2nccc(C(F)(F)F)n2)cc(-c2ccc(N3CCC[C@H]3C(=O)NCC(=O)O)nc2)c1 [Example 7.83, 1-[5-(3-methyl-5-{[4-(trifluoromethyl)pyrimidin-2-yl]amino}phenyl)pyridin-2-yl]-L-prolylglycine] |
| < 100 | Cc1cc(Nc2nccc(C(F)(F)F)n2)cc(-c2ccc(N3CCC[C@H]3C(=O)O)nc2)c1 [Example 7.84, 1-[5-(3-methyl-5-{[4-(trifluoromethyl)pyrimidin-2-yl]amino}phenyl)pyridin-2-yl]-L-proline] |
| < 100 | Cc1cc(Nc2nccc(C(F)(F)F)n2)cc(-c2ccc(N3CCCC[C@@H]3C(=O)O)nc2)c1 [Example 7.85, (2R)-1-[5-(3-methyl-5-{[4-(trifluoromethyl)pyrimidin-2-yl]amino}phenyl)pyridin-2-yl]piperidine-2-carboxylic acid] |
| < 100 | Cc1cc(Nc2nccc(C(F)(F)F)n2)cc(-c2ccc(N[C@@H](C)C(=O)O)nc2)c1 [Example 7.86, N-[5-(3-methyl-5-{[4-(trifluoromethyl)pyrimidin-2-yl]amino}phenyl)pyridin-2-yl]-L-alanine] |
| < 100 | Cc1cc(Nc2nccc(C(F)(F)F)n2)cc(-c2ccc(NCC(=O)O)nc2)c1 [Example 7.87, N-[5-(3-methyl-5-{[4-(trifluoromethyl)pyrimidin-2-yl]amino}phenyl)pyridin-2-yl]glycine] |
| < 100 | Cc1cc(Nc2nccc(C(F)(F)F)n2)cc(-c2ccc(NCCC(=O)O)nc2)c1 [Example 7.88, N-[5-(3-methyl-5-{[4-(trifluoromethyl)pyrimidin-2-yl]amino}phenyl)pyridin-2-yl]-beta-alanine] |
| < 100 | Cc1cc(Nc2nccc(C(F)(F)F)n2)cc(-c2ccc(N[C@H](C)C(=O)O)nc2)c1 [Example 7.89, N-[5-(3-methyl-5-{[4-(trifluoromethyl)pyrimidin-2-yl]amino}phenyl)pyridin-2-yl]-D-alanine] |

| IC50 [nM] | SMILES |
| --- | --- |
| < 100 | Cc1cc(Nc2nccc(C(F)(F)F)n2)cc(-c2ccc(N[C@@H](C(=O)O)C(C)C)nc2)c1 [Example 7.90, N-[5-(3-methyl-5-{[4-(trifluoromethyl)pyrimidin-2-yl]amino}phenyl)pyridin-2-yl]-D-valine] |
| < 100 | Cc1cc(Nc2nccc(C(F)(F)F)n2)cc(-c2ccc(N[C@H](C(=O)O)C(C)C)nc2)c1 [Example 7.91, N-[5-(3-methyl-5-{[4-(trifluoromethyl)pyrimidin-2-yl]amino}phenyl)pyridin-2-yl]-L-valine] |
| < 100 | Cc1cc(Nc2nccc(C(F)(F)F)n2)cc(-c2ccc(N[C@H](C(=O)O)[C@@H](C)O)nc2)c1 [Example 7.92, N-[5-(3-methyl-5-{[4-(trifluoromethyl)pyrimidin-2-yl]amino}phenyl)pyridin-2-yl]-L-threonine] |
| < 100 | Cc1cc(Nc2nccc(C(F)(F)F)n2)cc(-c2ccc(N[C@H](CC(N)=O)C(=O)O)nc2)c1 [Example 7.93, N~2~-[5-(3-methyl-5-{[4-(trifluoromethyl)pyrimidin-2-yl]amino}phenyl)pyridin-2-yl]-D-asparagine] |
| < 100 | Cc1cc(Nc2nccc(C(F)(F)F)n2)cc(-c2ccc(N[C@@H](CC(N)=O)C(=O)O)nc2)c1 [Example 7.94, N~2~-[5-(3-methyl-5-{[4-(trifluoromethyl)pyrimidin-2-yl]amino}phenyl)pyridin-2-yl]-L-asparagine] |
| < 100 | CSCC[C@H](Nc1ccc(-c2cc(C)cc(Nc3nccc(C(F)(F)F)n3)c2)cn1)C(=O)O [Example 7.95, N-[5-(3-methyl-5-{[4-(trifluoromethyl)pyrimidin-2-yl]amino}phenyl)pyridin-2-yl]-L-methionine] |
| < 100 | Cc1cc(Nc2nccc(C(F)(F)F)n2)cc(-c2ccc(N[C@H](Cc3ccccc3)C(=O)O)nc2)c1 [Example 7.96, N-[5-(3-methyl-5-{[4-(trifluoromethyl)pyrimidin-2-yl]amino}phenyl)pyridin-2-yl]-D-phenylalanine] |
| < 100 | Cc1cc(Nc2nccc(C(F)(F)F)n2)cc(-c2ccc(N[C@@H](Cc3ccccc3)C(=O)O)nc2)c1 [Example 7.97, N-[5-(3-methyl-5-{[4-(trifluoromethyl)pyrimidin-2-yl]amino}phenyl)pyridin-2-yl]-L-phenylalanine] |
| < 100 | Cc1cc(Nc2nccc(C(F)(F)F)n2)cc(-c2ccc(N[C@@H](Cc3ccc(O)cc3)C(=O)O)nc2)c1 [Example 7.98, N-[5-(3-methyl-5-{[4-(trifluoromethyl)pyrimidin-2-yl]amino}phenyl)pyridin-2-yl]-L-tyrosine] |
| < 100 | Cc1cc(Nc2nccc(C(F)(F)F)n2)cc(-c2ccc(N[C@H](Cc3c[nH]c4ccccc34)C(=O)O)nc2)c1 [Example 7.99, N-[5-(3-methyl-5-{[4-(trifluoromethyl)pyrimidin-2-yl]amino}phenyl)pyridin-2-yl]-D-tryptophan] |
| < 100 | Cc1cc(Nc2nccc(C(F)(F)F)n2)cc(-c2ccc(N[C@@H](Cc3c[nH]c4ccccc34)C(=O)O)nc2)c1 [Example 7.100, N-[5-(3-methyl-5-{[4-(trifluoromethyl)pyrimidin-2-yl]amino}phenyl)pyridin-2-yl]-L-tryptophan] |
| < 100 | CC[C@@H](C)[C@@H](Nc1ccc(-c2cc(C)cc(Nc3nccc(C(F)(F)F)n3)c2)cn1)C(=O)O [Example 7.101, N-[5-(3-methyl-5-{[4-(trifluoromethyl)pyrimidin-2-yl]amino}phenyl)pyridin-2-yl]-D-isoleucine] |
| < 100 | Cc1cc(Nc2nccc(C(F)(F)F)n2)cc(-c2ccc(NCCCC(=O)O)nc2)c1 [Example 7.102, 4-{[5-(3-methyl-5-{[4-(trifluoromethyl)pyrimidin-2-yl]amino}phenyl)pyridin-2-yl]amino}butanoic acid] |
| < 100 | CC[C@H](Nc1ccc(-c2cc(C)cc(Nc3nccc(C(F)(F)F)n3)c2)cn1)C(=O)O [Example 7.103, (2S)-2-{[5-(3-methyl-5-{[4-(trifluoromethyl)pyrimidin-2-yl]amino}phenyl)pyridin-2-yl]amino}butanoic acid] |
| < 100 | Cc1cc(Nc2nccc(C(F)(F)F)n2)cc(-c2ccc(N(C)[C@@H](C)C(=O)O)nc2)c1 [Example 7.104, N-methyl-N-[5-(3-methyl-5-{[4-(trifluoromethyl)pyrimidin-2-yl]amino}phenyl)pyridin-2-yl]-L-alanine] |
| < 100 | Cc1cc(Nc2nccc(C(F)(F)F)n2)cc(-c2ccc(N3C[C@H](O)C[C@H]3C(=O)O)nc2)c1 [Example 7.105, (4R)-4-hydroxy-1-[5-(3-methyl-5-{[4-(trifluoromethyl)pyrimidin-2-yl]amino}phenyl)pyridin-2-yl]-L-proline] |
| < 100 | Cc1cc(Nc2nccc(C(F)(F)F)n2)cc(-c2ccc(N[C@H](C(=O)O)C(C)(C)C)nc2)c1 [Example 7.106, 3-methyl-N-[5-(3-methyl-5-{[4-(trifluoromethyl)pyrimidin-2-yl]amino}phenyl)pyridin-2-yl]-L-valine] |
